Like-named read-outs stand apart in the source and are kept apart here.
Tests used:
[1] = test system: Pfeiffer cells; assay: Calcein AM proliferation assay, Pfeiffer cells; format: cell-based, human; settings: Homo sapiens, Pfeiffer, read-out: Pfeiffer proliferation IC50
[2] = test system: Karpas 422 cells; assay: Calcein AM proliferation assay, Karpas 422 cells; format: cell-based, human; settings: Homo sapiens, read-out: Karpas422 proliferation IC50
[3] = test system: WSU-DLCL2 cells; assay: Calcein AM proliferation assay, WSU-DLCL2 cells; format: cell-based, human; settings: Homo sapiens, read-out: WSU-DLCL2 proliferation IC50
Method: By observing under a microscope, it was confirmed that the cells are in good condition. The cells were transferred to a 15 mL centrifuge tube, which was centrifuged at 1000 rpm for 5 minutes.
Gradient dilutions of the compounds in DMSO were performed, and a compound plate with a final concentration of 500-fold was prepared. 1.2 μL of 500× compound was pipetted, transferred to 200 μL medium, and pipetted to mix well to obtain a 3× compound intermediate plate. 50 μL 3× compound is pipetted and added to the cell plate according to the set arrangement.
The cells of the above concentration were inoculated in 96-well plates, 100 μL/well (the number of cells in each well is 10,000). The cell plate was placed in a carbon dioxide incubator for 4 days. The cell plate was taken out. After mixed uniformly, a certain volume of cell suspension was drawn, and stained with Calcein AM. The number of cells in each well was counted with Acumen. According to the number of detected cells, 10,000 cells were re-inoculated in 96-well plates. As above, the compound was added. After placed in a carbon dioxide incubator for 3 days (day 7). The cell plate was taken out again. After mixed uniformly, a certain volume of cell suspension was drawn, stained with Calcein AM. The number of cells in each well was counted with Acumen. The cells were cultured for another 4 days (day 11), and the cell plate was taken out for the third time. After mixed uniformly, a certain volume of cell suspension was drawn, and stained with Calcein AM. The number of cells in each well was counted with Acumen. According to the number of detected cells, 10,000 cells were re-inoculated in 96-well plates. As above, the compound was added. […] After Calcein AM staining, the number of the cells was counted to obtain the final count result. The data of day 14 was processed to obtain the corresponding half-inhibitory concentration (IC50).
Using GraphPad Prism 5 software, a non-linear regression model was used to draw the S-type dose-survival rate curve and to calculate the IC50 value.

[4] = target: wild-type EZH2 (Homo sapiens, UniProt Q15910); assay: Radiometric assay of activity on wild-type PRC2 EZH2
Method: 10 microliters (μL) of the compound of the test example and wild-type EZH2 were added to each well. After being incubated at room temperature for 15 minutes, peptides and [3H]-labeled methyl donor S-adenosylmethionine (SAM) were added. After reacting at room temperature for 1 hour (h), cold SAM was added to terminate the reaction. 25 μl reaction solution was transferred to the scintillation plate. After incubating for 1 hour (h) at room temperature, the plate was washed three times with deionized water and 0.1% Tween 20. The value was read with a PerkinElmer liquid scintillation/luminescence counter, and the half inhibitory concentration (IC50) of the compound was calculated with the Prism 5 software (GraphPad Prism 5).

[5] = target: T1, Mutant EZH2 (Y641F) (Homo sapiens, UniProt Q15910, Y641F); assay: AlphaLISA assay on mutant PRC2 complex, EZH2 Y641F; format: biochemical
T1 construct: purchased BPS 51004
Method: Detection Method: AlphaLISA
(§1) Finally, 15 μl detection solution mixture was added under low light, and incubated at room temperature for 60 minutes, and read the value.

[6] = Pharmacokinetics experiment in rats; format: in vivo; settings: rat, plasma, male SD rats; for bioavailability: oral 20 mg/kg vs intravenous 4 mg/kg, read-out: Bioavailability (F %); for AUC: read-out: Area under the curve (AUC); for half-life: read-out: Half life (T1/2) (converted); for Cmax: read-out: Blood drug level (Cmax)
Method: Male SD rats weighing 200-300 g and 8 weeks old were used as experimental animals. […] The pharmacokinetic behavior of the compound of the present invention in rats was studied, and the pharmacokinetic characteristics thereof were evaluated.
A certain amount of the compound was weighed, dissolved in 0.10% tween for vortex and ultrasound, and then 0.5% sodium carboxymethyl cellulose (CMC-Na) solution was added to prepare a uniform solution.
The above-mentioned compounds were applied intravenously and orally to rats at a dose of 4 mg/kg and a dose of 20 mg/kg, respectively. At 0.083 h, 0.25 h, 0.5 h, 1.0 h, 2.0 h, 4.0 h, 6.0 h, 8.0 h, 12.0 h, and 24.0 h after application, 0.2 mL of blood was collected from the orbit, and placed in an anticoagulant tube, which was centrifuged at 6000 rpm for 10 minutes at 4° C. The plasma was separated and stored at −80° C.

[7] = target: T2, Mutant EZH2 (Y641N) (Homo sapiens, UniProt Q15910, Y641N); assay: AlphaLISA assay on mutant PRC2 complex, EZH2 Y641N; format: biochemical
T2 construct: purchased BPS 51004
Method: Detection Method: AlphaLISA
as §1

[8] = target: T3, Mutant EZH2 (A677G) (Homo sapiens, UniProt Q15910, A677G); assay: AlphaLISA assay on mutant PRC2 complex, EZH2 A677G; format: biochemical
T3 construct: purchased BPS 51004
Method: Detection Method: AlphaLISA
as §1

[9] = day 14 data, Calcein AM staining
[10] = KARPAS-422, day 14 data, Calcein AM staining
[11] = WSUDLCL2, day 14 data, Calcein AM staining

T2 sequence (Q15910 whole entry Y641N): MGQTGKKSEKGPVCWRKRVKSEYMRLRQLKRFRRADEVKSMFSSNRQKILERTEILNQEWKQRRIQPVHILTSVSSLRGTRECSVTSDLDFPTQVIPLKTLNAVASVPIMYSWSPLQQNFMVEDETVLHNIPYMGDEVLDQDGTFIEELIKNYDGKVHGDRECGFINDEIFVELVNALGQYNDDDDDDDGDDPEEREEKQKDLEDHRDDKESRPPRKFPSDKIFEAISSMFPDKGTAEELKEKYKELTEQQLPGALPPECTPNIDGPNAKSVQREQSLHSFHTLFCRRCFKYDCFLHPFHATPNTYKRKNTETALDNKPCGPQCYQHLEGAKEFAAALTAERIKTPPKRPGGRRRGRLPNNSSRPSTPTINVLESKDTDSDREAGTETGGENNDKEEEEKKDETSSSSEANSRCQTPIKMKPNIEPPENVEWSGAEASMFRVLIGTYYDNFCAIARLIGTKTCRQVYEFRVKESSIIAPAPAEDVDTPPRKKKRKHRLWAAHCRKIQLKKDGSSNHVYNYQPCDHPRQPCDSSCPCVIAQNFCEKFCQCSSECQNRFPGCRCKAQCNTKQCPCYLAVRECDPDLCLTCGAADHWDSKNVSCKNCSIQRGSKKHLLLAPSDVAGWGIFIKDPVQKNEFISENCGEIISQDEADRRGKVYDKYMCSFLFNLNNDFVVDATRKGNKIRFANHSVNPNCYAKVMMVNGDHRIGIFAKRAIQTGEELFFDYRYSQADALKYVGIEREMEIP
T2 sequence (O75530 whole entry partner): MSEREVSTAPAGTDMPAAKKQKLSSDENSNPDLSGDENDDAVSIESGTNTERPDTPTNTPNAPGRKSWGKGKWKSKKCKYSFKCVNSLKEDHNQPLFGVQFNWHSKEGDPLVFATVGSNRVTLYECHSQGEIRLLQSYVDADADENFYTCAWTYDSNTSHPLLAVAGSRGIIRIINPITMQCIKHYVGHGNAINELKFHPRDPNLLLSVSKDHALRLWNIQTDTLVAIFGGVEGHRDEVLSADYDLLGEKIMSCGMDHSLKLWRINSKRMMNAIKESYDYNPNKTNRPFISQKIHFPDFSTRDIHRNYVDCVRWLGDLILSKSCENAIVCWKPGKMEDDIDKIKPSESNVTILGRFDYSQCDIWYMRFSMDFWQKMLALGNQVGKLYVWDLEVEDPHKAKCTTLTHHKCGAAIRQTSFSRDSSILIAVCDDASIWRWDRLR
T2 sequence (Q15022 whole entry partner): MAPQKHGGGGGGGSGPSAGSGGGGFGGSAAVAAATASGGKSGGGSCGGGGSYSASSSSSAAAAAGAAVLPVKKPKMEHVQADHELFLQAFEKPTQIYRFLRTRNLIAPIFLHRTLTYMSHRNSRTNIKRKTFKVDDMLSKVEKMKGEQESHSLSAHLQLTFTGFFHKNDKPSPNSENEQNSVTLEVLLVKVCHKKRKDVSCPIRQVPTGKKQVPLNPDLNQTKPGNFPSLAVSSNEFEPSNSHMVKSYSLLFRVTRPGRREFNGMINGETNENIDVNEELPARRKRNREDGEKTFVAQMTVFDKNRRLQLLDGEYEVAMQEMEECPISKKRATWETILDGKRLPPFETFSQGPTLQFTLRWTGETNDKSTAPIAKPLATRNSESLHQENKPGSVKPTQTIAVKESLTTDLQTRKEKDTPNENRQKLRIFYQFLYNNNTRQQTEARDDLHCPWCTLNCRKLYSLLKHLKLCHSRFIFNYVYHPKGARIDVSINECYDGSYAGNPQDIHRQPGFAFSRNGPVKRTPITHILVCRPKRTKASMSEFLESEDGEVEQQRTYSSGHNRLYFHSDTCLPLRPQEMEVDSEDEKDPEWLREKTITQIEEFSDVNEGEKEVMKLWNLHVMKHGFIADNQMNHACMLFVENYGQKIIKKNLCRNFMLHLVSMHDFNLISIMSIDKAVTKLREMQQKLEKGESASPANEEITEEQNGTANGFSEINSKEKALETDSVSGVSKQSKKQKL
T2 sequence (Q09028 whole entry partner): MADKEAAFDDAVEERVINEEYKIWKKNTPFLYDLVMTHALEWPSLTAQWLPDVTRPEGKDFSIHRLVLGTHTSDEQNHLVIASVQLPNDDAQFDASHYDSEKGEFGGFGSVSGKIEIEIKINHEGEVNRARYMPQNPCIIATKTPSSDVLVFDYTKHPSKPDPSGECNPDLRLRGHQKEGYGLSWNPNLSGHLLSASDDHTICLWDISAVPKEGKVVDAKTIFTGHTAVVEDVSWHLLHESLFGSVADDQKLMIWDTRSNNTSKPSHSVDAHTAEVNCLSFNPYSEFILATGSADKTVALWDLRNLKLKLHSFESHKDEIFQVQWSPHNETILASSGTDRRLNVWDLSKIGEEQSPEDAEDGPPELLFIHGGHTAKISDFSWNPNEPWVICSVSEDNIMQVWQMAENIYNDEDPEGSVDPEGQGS
T2 sequence (Q6ZN18 whole entry partner): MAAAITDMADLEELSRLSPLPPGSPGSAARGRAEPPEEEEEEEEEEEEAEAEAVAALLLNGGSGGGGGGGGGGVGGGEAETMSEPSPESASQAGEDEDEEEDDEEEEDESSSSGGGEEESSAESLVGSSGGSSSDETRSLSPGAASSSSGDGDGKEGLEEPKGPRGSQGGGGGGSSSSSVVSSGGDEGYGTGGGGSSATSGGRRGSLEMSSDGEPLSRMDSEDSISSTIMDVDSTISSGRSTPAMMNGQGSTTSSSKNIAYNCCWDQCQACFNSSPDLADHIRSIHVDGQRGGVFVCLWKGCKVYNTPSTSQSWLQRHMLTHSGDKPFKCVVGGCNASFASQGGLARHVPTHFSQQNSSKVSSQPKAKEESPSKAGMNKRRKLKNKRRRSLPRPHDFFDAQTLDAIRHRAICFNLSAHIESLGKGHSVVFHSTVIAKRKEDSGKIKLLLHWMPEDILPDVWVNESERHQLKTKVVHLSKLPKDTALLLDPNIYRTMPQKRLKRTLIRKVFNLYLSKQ
Sequence of wild-type EZH2 (Q15910 whole entry): as the sequence (Q15910 whole entry Y641N) above, with N641Y counted along it
Sequence of wild-type EZH2 (O75530 whole entry partner): as the sequence (O75530 whole entry partner) above
Sequence of wild-type EZH2 (Q15022 whole entry partner): as the sequence (Q15022 whole entry partner) above
Sequence of wild-type EZH2 (Q09028 whole entry partner): as the sequence (Q09028 whole entry partner) above
T1 sequence (Q15910 whole entry Y641F): as the sequence (Q15910 whole entry Y641N) above, with N641F counted along it
T1 sequence (O75530 whole entry partner): as the sequence (O75530 whole entry partner) above
T1 sequence (Q15022 whole entry partner): as the sequence (Q15022 whole entry partner) above
T1 sequence (Q09028 whole entry partner): as the sequence (Q09028 whole entry partner) above
T1 sequence (Q6ZN18 whole entry partner): as the sequence (Q6ZN18 whole entry partner) above
T3 sequence (Q15910 whole entry A677G): as the sequence (Q15910 whole entry Y641N) above, with N641Y, A677G counted along it
T3 sequence (O75530 whole entry partner): as the sequence (O75530 whole entry partner) above
T3 sequence (Q15022 whole entry partner): as the sequence (Q15022 whole entry partner) above
T3 sequence (Q09028 whole entry partner): as the sequence (Q09028 whole entry partner) above
T3 sequence (Q6ZN18 whole entry partner): as the sequence (Q6ZN18 whole entry partner) above

Compound	IC50 [1, 9] [nM]	IC50 [2, 10] [nM]	IC50 [3, 11] [nM]	IC50 [4] [nM]	other results
CCN(c1cc(-c2ccc3c(c2)CCC3N2CCOCC2)cc(C(=O)NCc2c(C)cc(C)[nH]c2=O)c1C)C1CCOC(C)C1 (centres unmarked) [Compound 14, N-((4,6-dimethyl-2-oxo-1,2-dihydropyridin-3-yl)methyl)-3-((2-methyltetrahydro-2H-pyran-4-yl)(ethyl)amino)-2-methyl-5-(1-morpholino-2,3-dihydro-1H-inden-5-yl)benzamide]	2.89	3.76	4.15	–	–
CCN(c1cc(N2Cc3ccc(N(C)C)cc3C2)cc(C(=O)NCc2c(C)cc(C)[nH]c2=O)c1C)C1CCOCC1 [Compound 17, N-((4,6-dimethyl-2-oxo-1,2-dihydropyridin-3-yl)methyl)-5-(5-(dimethylamino)isoindolin-2-yl)-3-(ethyl(tetrahydro-2H-pyran-4-yl)amino)-2-methylbenzamide]	1.27	2.6	3.71	–	–
CCN(c1cc(-c2ccc(C3(COC)CCOCC3)cc2)cc(C(=O)NCc2c(C)cc(C)[nH]c2=O)c1C)C1CCOCC1 [Compound 5, N-((4,6-dimethyl-2-carbonyl-1,2-dihydropyridin-3-yl)methyl)-5-(ethyl(tetrahydro-2H-pyran-4-yl)amino)-4′-(4-(methoxymethyl)tetrahydro-2H-pyran-4-yl)-4-methyl-[1,1′-biphenyl]-3-carboxamide]	2.84	3.23	5.85	–	–
CCN(c1cc(-c2ccc(C3(CO)CCOCC3)cc2)cc(C(=O)NCc2c(C)cc(C)[nH]c2=O)c1C)C1CCOCC1 [Compound 3, N-((4,6-dimethyl-2-carbonyl-1,2-dihydropyridin-3-yl)methyl)-5-(ethyl(tetrahydro-2H-pyran-4-yl)amino)-4′-(4-(hydroxymethyl)tetrahydro-2H-pyran-4-yl)-4-methyl-[1,1′-biphenyl]-3-carboxamide]	1.67	2.5	2.68	–	–
CCN(c1ccc2c(c1)CN(c1cc(C(=O)NCc3c(C)cc(C)[nH]c3=O)c(C)c(N(CC)C3CCOCC3)c1)C2)C1CCOCC1 [Compound 22, N-((4,6-dimethyl-2-oxo-1,2-dihydropyridin-3-yl)methyl)-3-(ethyl (tetrahydro-2H-pyran-4-yl)amino)-5-(5-(ethyl(tetrahydro-2H-pyran-4-yl)amino)isoindolin-2-yl)-2-methylbenzamide]	1.87	3.67	6.38	0.71	–
CCN(c1cc(-c2ccc3c(c2)CCC3N2CCOCC2)c(F)c(C(=O)NCc2c(C)cc(C)[nH]c2=O)c1C)C1CCOCC1 (centres unmarked) [Compound 11, N-((4,6-dimethyl-2-oxo-1,2-dihydropyridin-3-yl)methyl)-3-(ethyl (tetrahydro-2H-pyran-4-yl)amino)-6-fluoro-2-methyl-5-(1-morpholino-2,3-dihydro-1H-inden-5-yl)benzamide]	1.08	1.87	2.92	0.6	IC50 [5]: 0.54 nM; bioavailability [6]: 26.6%; AUC ([6]; intravenous dosing 4 mg/kg): 954 ng·h/mL; half-life ([6]; intravenous dosing 4 mg/kg): 1.34 h; AUC ([6]; oral dosing 20 mg/kg): 1270 ng·h/mL; Cmax ([6]; oral dosing 20 mg/kg): 489 ng/mL
CCN(c1cc(-c2cc3c(cc2F)C(N2CCOCC2)CC3)c(F)c(C(=O)NCc2c(C)cc(C)[nH]c2=O)c1C)C1CCOCC1 (centres unmarked) [Compound 28]	1.53	2.7	3.47	0.91	IC50 [7]: 0.3 nM; IC50 [8]: 0.5 nM
CCN(c1cc(-c2cc3c(cc2F)C(N2CCOCC2)CC3)cc(C(=O)NCc2c(C)cc(C)[nH]c2=O)c1C)C1CCOCC1 (centres unmarked) [Compound 24]	2.96	4.47	5.28	0.87	IC50 [8]: 0.61 nM
CCN(c1cc(-c2ccc3c(c2)CCC3N2CCOCC2)cc(C(=O)NCc2c(C)cc(C)[nH]c2=O)c1C)C1CC(C)OC(C)C1 (centres unmarked) [Compound 13, N-((4,6-dimethyl-2-oxo-1,2-dihydropyridin-3-yl)methyl)-3-((2,6-dimethyltetrahydro-2H-pyran-4-yl)(ethyl)amino)-2-methyl-5-(1-morpholino-2,3-di hydro-1H-inden-5-yl)benzamide]	–	–	–	0.95	IC50 ([1]; […]): 0.87 nM; IC50 [5]: 0.81 nM; IC50 ([2]; KARPAS-422, […]): 0.95 nM; bioavailability [6]: 34.5%; AUC ([6]; intravenous dosing 4 mg/kg): 977 ng·h/mL; half-life ([6]; intravenous dosing 4 mg/kg): 1.34 h; AUC ([6]; oral dosing 20 mg/kg): 1690 ng·h/mL; Cmax ([6]; oral dosing 20 mg/kg): 403 ng/mL; IC50 ([3]; WSUDLCL2, […]): 1.28 nM
CCN(c1cc(-c2ccc3c(c2)CCC3N2CCOCC2)c(Cl)c(C(=O)NCc2c(C)cc(C)[nH]c2=O)c1C)C1CCOCC1 (centres unmarked) [Compound 10, 2-chloro-N-((4,6-dimethyl-2-oxo-1,2-dihydropyridin-3-yl)methyl)-5-(ethyl(tetrahydro-2H-pyran-4-yl)amino)-6-methyl-3-(1-morpholino-2,3-dihydro-1H-inden-5-yl)benzamide]	0.38	0.58	1.17	0.63	IC50 [7]: 0.3 nM; IC50 [5]: 0.58 nM; bioavailability [6]: 30.6%; AUC ([6]; intravenous dosing 4 mg/kg): 937 ng·h/mL; half-life ([6]; intravenous dosing 4 mg/kg): 1.64 h; AUC ([6]; oral dosing 20 mg/kg): 1440 ng·h/mL; Cmax ([6]; oral dosing 20 mg/kg): 405 ng/mL
C=CC(=O)Nc1ccc2c(c1)CN(c1cc(C(=O)NCc3c(C)cc(C)[nH]c3=O)c(C)c(N(CC)C3CCOCC3)c1)C2 [Compound 19, 5-(5-acrylamidoisoindolin-2-yl)-N-((4,6-dimethyl-2-oxo-1,2-dihydropyridin-3-yl)methyl)-3-(ethyl(tetrahydro-2H-pyran-4-yl)amino)-2-methylbenzamide]	2.34	3.21	7.75	0.61	IC50 [7]: 0.08 nM
CCN(c1cc(-c2cc(F)c3c(c2)CCC3N2CCOCC2)cc(C(=O)NCc2c(C)cc(C)[nH]c2=O)c1C)C1CCOCC1 (centres unmarked) [Compound 26]	5.86	6.47	9.42	–	–
CCN(c1cc(-c2ccc(C3(C#N)CCOCC3)cc2)cc(C(=O)NCc2c(C)cc(C)[nH]c2=O)c1C)C1CCOCC1 [Compound 1, 4′-(4-cyanotetrahydro-2H-pyran-4-yl)-N-((4,6-dimethyl-2-carbonyl-1,2-dihydropyridin-3-yl)methyl)-5-(ethyl(tetrahydro-2H-pyran-4-yl)amino)-4-methyl-[1,1′-biphenyl]-3-formamide]	–	–	–	–	IC50 ([1]; […]): 1.34 nM; IC50 ([2]; KARPAS-422, […]): 2.15 nM; IC50 ([3]; WSUDLCL2, […]): 2.87 nM
CCN(c1cc(-c2ccc(C3(C(=O)O)CCOCC3)cc2)cc(C(=O)NCc2c(C)cc(C)[nH]c2=O)c1C)C1CCOCC1 [Compound 2, 4-(3′-(((4,6-dimethyl-2-carbonyl-1,2-dihydropyridin-3-yl)methyl)carbamoyl)-5′-(ethyl(tetrahydro-2H-pyran-4-yl)amino)-4′-methyl-[1,1′-biphenyl]-4-yl)tetrahydro-2H-pyran-4-carboxylic Acid]	–	1.08	1.58	–	–
CCN(c1cc(-c2ccc3c(c2)CCC3N2CCOCC2)cc(C(=O)NCc2c(OC)cc(C)[nH]c2=O)c1C)C1CCOCC1 (centres unmarked) [Compound 6, 3-(ethyl(tetrahydro-2H-pyran-4-yl)amino)-N-((4-methoxy-6-methyl-2-oxo-1,2-dihydropyridin-3-yl)methyl)-2-methyl-5-(1-morpholino-2,3-dihydro-1H-inden-5-yl)benzamide]	3.2	4.15	5.13	0.52	bioavailability [6]: 33.3%; AUC ([6]; intravenous dosing 4 mg/kg): 966 ng·h/mL; half-life ([6]; intravenous dosing 4 mg/kg): 1.12 h; AUC ([6]; oral dosing 20 mg/kg): 1610 ng·h/mL; Cmax ([6]; oral dosing 20 mg/kg): 456 ng/mL
CCN(c1cc(N2Cc3ccc(CN4CCOCC4)cc3C2)cc(C(=O)NCc2c(C)cc(C)[nH]c2=O)c1C)C1CCOCC1 [Compound 20, N-((4,6-dimethyl-2-oxo-1,2-dihydropyridin-3-yl)methyl)-3-(ethyl (tetrahydro-2H-pyran-4-yl)amino)-2-methyl-5-((5-morpholinomethyl)isoindolin-2-yl)benzamide]	2.85	3.62	7.84	–	–
CCN(c1cc(-c2ccc3c(c2)C(C)(C)CC3N2CCOCC2)cc(C(=O)NCc2c(C)cc(C)[nH]c2=O)c1C)C1CCOCC1 (centres unmarked) [Compound 27]	–	–	1.71	–	–
CCN(c1cc(-c2ccc(C3(C#N)CCOCC3)cc2)c(Cl)c(C(=O)NCc2c(C)cc(C)[nH]c2=O)c1C)C1CCOCC1 [Compound 9, 2-chloro-4′-(4-cyanotetrahydro-2H-pyran-4-yl)-N-((4,6-dimethyl-2-oxo-1,2-dihydropyridin-3-yl)methyl)-5-(ethyl(tetrahydro-2H-pyran-4-yl)amino)-4-methyl-[1,1′-biphenyl]-3-formamide]	3.47	4.15	4.68	0.9	IC50 [5]: 0.48 nM
